Square brackets hold non-standard residues; d marks the D form. Peptide text beside a SMILES is read from it. * marks the point of attachment. Desaminotyrosyl = O=C(CCc1ccc(O)cc1)*; hArg = N=C(N)NCCCC[C@H](N)C(=O)O; Agmatine = N=C(N)NCCCCN*; Nle = CCCC[C@H](N)C(=O)O; Orn = NCCC[C@H](N)C(=O)O; Abu = CC[C@H](N)C(=O)O; Aoc = NCCCCCCCC(=O)O
Molecular target: T1, GHRH receptor (Homo sapiens, UniProt Q02643)
T1 construct: Normal human pituitaries were purchased from the National Hormone and Peptide Program; tissue National Hormone and Peptide Program (A. F. Parlow); host or cells: normal human pituitary, membrane fraction
T1 sequence (Q02643 23-423): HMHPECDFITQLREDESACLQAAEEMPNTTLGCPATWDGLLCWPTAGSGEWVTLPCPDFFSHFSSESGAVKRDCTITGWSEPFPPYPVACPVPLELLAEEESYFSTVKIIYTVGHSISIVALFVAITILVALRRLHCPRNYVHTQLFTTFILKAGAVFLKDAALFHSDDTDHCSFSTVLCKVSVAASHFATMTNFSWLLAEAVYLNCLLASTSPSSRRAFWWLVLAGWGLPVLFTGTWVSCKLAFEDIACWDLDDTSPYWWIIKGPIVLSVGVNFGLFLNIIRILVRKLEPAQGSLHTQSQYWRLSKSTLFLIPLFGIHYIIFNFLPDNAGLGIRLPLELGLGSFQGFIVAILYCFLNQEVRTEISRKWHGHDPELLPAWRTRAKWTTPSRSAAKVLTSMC
Test: GHRH receptor binding, [His1,125I-Tyr10,Nle27]hGHRH(1-32)NH2 ligand competition, human pituitary membrane homogenates (Table 6)
Conditions: [His1,125I-Tyr10,Nle27]hGHRH(1-32)NH2, human pituitary membranes
Procedure: Receptor binding assay Ligand competition assay with ^125I-labeled [His^1, Nle^27]hGH-RH(1-32)-NH2 was used to determine the binding affinities of the novel hGH-RH agonists to membrane receptors of rat anterior pituitary cells. The methods used have been described in detail (Halmos G, et al. Receptor 3: 87-97, 1993), here by incorporated by reference. Briefly, radioidonated [His^1, Nle^27]hGH-RH(1-32)-NH2 is prepared by the chloramines-T method. […] IC50 is the dose of the tested peptides causing 50% inhibition of specific binding to receptors.
Preparation of human pituitary membrane fraction and receptor binding of GHRH agonists were performed as previously described, by using a sensitive in vitro ligand competition assay based on binding of ^125I-labeled [His^1, Nle^27]hGHRH(1-32)NH2 to human pituitary membrane homogenates. Normal human pituitaries were purchased from the National Hormone and Peptide Program (A. F. Parlow, Los Angeles, County Harbor—UCLA Medical Center, Torrance, Calif.).

IC50 [nM] | Compound
0.07 | CCCC[C@H](NC(=O)[C@@H](NC(=O)[C@H](CC(=O)O)NC(=O)[C@H](CCC(N)=O)NC(=O)[C@H](CC(C)C)NC(=O)[C@H](CC(C)C)NC(=O)[C@H](CCCN)NC(=O)[C@H](CCCNC(=N)N)NC(=O)[C@H](C)NC(=O)[C@H](CO)NC(=O)[C@H](CC(C)C)NC(=O)[C@H](CCC(N)=O)NC(=O)[C@H](CC)NC(=O)[C@H](CC(C)C)NC(=O)[C@@H](NC(=O)[C@H](CCCN)NC(=O)[C@H](CCCNC(=N)N)NC(=O)[C@H](Cc1ccc(O)cc1)NC(=O)[C@H](CO)NC(=O)[C@@H](NC(=O)[C@@H](NC(=O)[C@H](Cc1ccccc1)NC(=O)[C@@H](NC(=O)[C@H](C)NC(=O)[C@H](CC(=O)O)NC(=O)[C@@H](C)NC(=O)CCc1ccc(O)cc1)[C@@H](C)CC)[C@@H](C)O)[C@@H](C)O)C(C)C)[C@@H](C)CC)C(=O)N[C@@H](CC(=O)O)C(=O)N[C@@H](CCCNC(=N)N)C(=O)N[C@@H](CCCCNC(=N)N)C(N)=O [Peptide P-23254, [Dat^1, D-Ala^2, Thr^8, Orn^12, Abu^15, Orn^21, Nle^27, Asp^28, Har^30]hGH-RH(1-30)NH2] (Desaminotyrosyl-[dA]DAIFTTSYR[Orn]VL[Abu]QLSAR[Orn]LLQDI[Nle]DR[hArg]-NH2)
0.08 | CCCC[C@H](NC(=O)[C@@H](NC(=O)[C@H](CC(=O)O)NC(=O)[C@H](CCC(N)=O)NC(=O)[C@H](CC(C)C)NC(=O)[C@H](CC(C)C)NC(=O)[C@H](CCCN)NC(=O)[C@H](CCCNC(=N)N)NC(=O)[C@H](C)NC(=O)[C@H](CO)NC(=O)[C@H](CC(C)C)NC(=O)[C@H](CCC(N)=O)NC(=O)[C@H](CC)NC(=O)[C@H](CC(C)C)NC(=O)[C@@H](NC(=O)[C@H](CCCN)NC(=O)[C@H](CCCNC(=N)N)NC(=O)[C@H](Cc1ccc(O)cc1)NC(=O)[C@H](CO)NC(=O)[C@H](CCC(N)=O)NC(=O)[C@@H](NC(=O)[C@H](Cc1ccccc1)NC(=O)[C@@H](NC(=O)[C@H](C)NC(=O)[C@H](CC(=O)O)NC(=O)[C@@H](C)NC(=O)CCc1ccc(O)cc1)[C@@H](C)CC)[C@@H](C)O)C(C)C)[C@@H](C)CC)C(=O)N[C@@H](CC(=O)O)C(=O)N[C@@H](CCCNC(=N)N)C(=O)NCCCCCCCC(N)=O [Peptide P-21304, [Dat^1, D-Ala^2, Gln^8, Orn^12, Abu^15, Orn^21, Nle^27, Asp^28, Amc^30]hGH-RH(1-30)NH2] (Desaminotyrosyl-[dA]DAIFTQSYR[Orn]VL[Abu]QLSAR[Orn]LLQDI[Nle]DR[Aoc]-NH2)

Compound | IC50 [nM]
CCCC[C@H](NC(=O)[C@@H](NC(=O)[C@H](CC(=O)O)NC(=O)[C@H](CCC(N)=O)NC(=O)[C@H](CC(C)C)NC(=O)[C@H](CC(C)C)NC(=O)[C@H](CCCN)NC(=O)[C@H](CCCNC(=N)N)NC(=O)[C@H](C)NC(=O)[C@H](CO)NC(=O)[C@H](CC(C)C)NC(=O)[C@H](CCC(N)=O)NC(=O)[C@H](CC)NC(=O)[C@H](CC(C)C)NC(=O)[C@@H](NC(=O)[C@H](CCCN)NC(=O)[C@H](CCCNC(=N)N)NC(=O)[C@H](Cc1ccc(O)cc1)NC(=O)[C@H](CO)NC(=O)[C@H](CC(N)=O)NC(=O)[C@@H](NC(=O)[C@H](Cc1ccccc1)NC(=O)[C@@H](NC(=O)[C@H](C)NC(=O)[C@H](CC(=O)O)NC(=O)[C@H](C)NC(=O)CCc1ccc(O)cc1)[C@@H](C)CC)[C@@H](C)O)C(C)C)[C@@H](C)CC)C(=O)N[C@@H](CC(=O)O)C(=O)NCCCCNC(=N)N [JI-34, reference compound] (Desaminotyrosyl-ADAIFTNSYR[Orn]VL[Abu]QLSAR[Orn]LLQDI[Nle]D-Agmatine; N-terminus and C-terminus assumed) | 1.37
